Series [1] relates to Klebsiella pneumoniae: Ciprofloxacin-resistant isolate, ESBL, clinical isolate (KP-3700). In words: MIC determination (CLSI), KP-3700. It is filed as cell-based. In short, it runs like this: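 Strain KP-3700, a clinical isolate producing extended-spectrum β-lactamases and resistant to ciprofloxacin, was tested. Minimum inhibitory concentrations determined via CLSI dilution methodology (M7-A7; M100-S18).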

The test system of series [2] is Acinetobacter baumanii/haemolyticus: Multidrug-resistant clinical isolate (AB-3167). In words: MIC determination (CLSI), AB-3167. The conditions noted are these: Acinetobacter baumanii/haemolyticus multidrug-resistant clinical isolate AB-3167. It is filed as cell-based. In a few lines:
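Multidrug-resistant clinical isolate AB-3167 (A. baumannii/haemolyticus) tested for minimum inhibitory concentration following CLSI dilution susceptibility standards M7-A7 and M100-S18.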

In series [3] the test system is Pseudomonas aeruginosa UI-18: Wild-type (PA-7). Nature of the series: MIC determination (CLSI), PA-7. In kind it is cell-based. The conditions noted are these: Pseudomonas aeruginosa UI-18 wild-type PA-7. In short, it runs like this:
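Wild-type P. aeruginosa UI-18 tested for minimum inhibitory concentration. Broth/agar dilution following CLSI standards (M7-A7, M100-S18).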

Series [4] relates to Escherichia coli EC-1: VOGEL, mouse virulent. In words: MIC determination (CLSI), EC-1. It is filed as cell-based. Conditions: Escherichia coli EC-1 VOGEL, mouse virulent. In short, it runs like this: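 E. coli Vogel, a mouse-virulent strain (EC-1), was tested. MICs were set by dilution susceptibility testing per CLSI standards M7-A7/M100-S18.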
The target in series [5] is Pseudomonas aeruginosa LpxC enzyme (Pseudomonas aeruginosa (strain ATCC 15692 / DSM 22644 / CIP 104116 / JCM 14847 / LMG 12228 / 1C / PRS 101 / PAO1), UniProt P47205). Nature of the series: IC50 Assay, LpxC Enzyme from P. aeruginosa (PA LpxC Enzyme IC50). In kind it is biochemical. Conditions: P. aeruginosa LpxC enzyme; read-out: PA LpxC enzyeme IC50. As to the method: In order to assess the compounds biological activity, selected in-vitro assays were conducted on selected compounds. One of the assays measured the compounds ability to disrupt the synthesis of lipopolysaccharide, LPS, which is a component of the outer membrane of Gram-negative bacteria. Disruption of this synthesis is lethal to the bacteria. The assay determined the compound's ability to inhibit LpxC, which is the first enzyme in the biosynthetic pathway for LPS (measured as IC50). Additionally, MICs (minimal inhibitory concentrations) were determined for several bacteria. The specific protocols are described below:
A) IC50 Assay, LpxC Enzyme from P. aeruginosa (Labled as PA LpxC Enzyme IC50
At the end of 1 hour, 5 ul of 1N HCl was added to stop the enzyme reaction; the plates were centrifuged, and then processed with the BioTrove Rapidfire HTMS Mass Spectrometry System. A no-enzyme control was used in calculating the IC50 values from the percent conversion values.

SMILES strings stand for the structures.

Broadly, the IC50 is the concentration that inhibits the measured activity by half. For `CC(C)Cc1ccc(-c2ccc(CCC(C)(C(=O)NO)S(C)(=O)=O)cc2)cc1` (centres unmarked) [Example 63], the “KP-3700 MIC” value in series [1] stood at 4 mg/L. In addition, in series [2], the “AB-3167 MIC” value turned out to be 8 mg/L. Also, the “PA-7 MIC” value in series [3] came to 16 mg/L. In addition, the “EC-1 MIC” value in series [4] stood at 2 mg/L. Moreover, the IC50 in series [5] amounted to 0.356 nM.
Consider `CC(CCc1ccc(-c2cccc(C#N)c2)cc1)(C(=O)NO)S(C)(=O)=O` (centres unmarked) [Example 64], for which the “KP-3700 MIC” value in series [1] was determined as 8 mg/L. In series [2], the “AB-3167 MIC” value is reported as “≧64 mg/L”. For the same compound, in series [3], the “PA-7 MIC” value was 2 mg/L. For the same compound, the “EC-1 MIC” value in series [4] was 4 mg/L. The IC50 in series [5] stood at 0.739 nM.
With `CC(CCc1ccc(-c2ccsc2)cc1)(C(=O)NO)S(C)(=O)=O` (centres unmarked) [Example 77], the “KP-3700 MIC” value in series [1] came out at 16 mg/L. In addition, the “AB-3167 MIC” value in series [2] is reported as “≧64 mg/L”. In addition, the “PA-7 MIC” value in series [3] amounted to 2 mg/L. In addition, the “EC-1 MIC” value in series [4] was determined as 8 mg/L. Besides, in series [5], the IC50 turned out to be 0.991 nM.
On to `Cc1cccc(-c2ccc(CCC(C)(C(=O)NO)S(C)(=O)=O)cc2)c1C` (centres unmarked) [Example 78], for which the “KP-3700 MIC” value in series [1] is reported as 16 mg/L. Also, in series [2], the “AB-3167 MIC” value is “≧64 mg/L”. Besides, the “PA-7 MIC” value in series [3] turned out to be 2 mg/L. Besides, the “EC-1 MIC” value in series [4] amounted to 2 mg/L. For the same compound, the IC50 in series [5] turned out to be 0.444 nM.
Consider `CC(CCc1ccc(-c2ccccc2Cl)cc1)(C(=O)NO)S(C)(=O)=O` (centres unmarked) [Example 81], for which, in series [1], the “KP-3700 MIC” value worked out at 8 mg/L. The “AB-3167 MIC” value in series [2] is recorded as 32 mg/L. For the same compound, the “PA-7 MIC” value in series [3] was determined as 1 mg/L. The “EC-1 MIC” value in series [4] came to 2 mg/L. Besides, in series [5], the IC50 came to 0.448 nM.
For `Cc1ccc(-c2ccc(CCC(C)(C(=O)NO)S(C)(=O)=O)cc2)cc1C` (centres unmarked) [Example 83], in series [1], the “KP-3700 MIC” value came out at 4 mg/L. Further, the “AB-3167 MIC” value in series [2] is recorded as 8 mg/L. For the same compound, the “PA-7 MIC” value in series [3] was found to be 2 mg/L. For the same compound, in series [4], the “EC-1 MIC” value is 1 mg/L. The IC50 in series [5] was 0.242 nM.
On to `CC(CCc1ccc(-c2cccc(Cl)c2)cc1)(C(=O)NO)S(C)(=O)=O` (centres unmarked) [Example 88], for which, in series [1], the “KP-3700 MIC” value was found to be 4 mg/L. In series [2], the “AB-3167 MIC” value stood at 4 mg/L. In series [3], the “PA-7 MIC” value is recorded as 1 mg/L. Further, the “EC-1 MIC” value in series [4] was 1 mg/L. Also, the IC50 in series [5] was determined as 0.364 nM.
Turning to `Cc1cc(C#N)ccc1-c1ccc(CCC(C)(C(=O)NO)S(C)(=O)=O)cc1` (centres unmarked) [Example 91], in series [1], the “KP-3700 MIC” value is on record as 8 mg/L. Besides, in series [2], the “AB-3167 MIC” value is on record as 16 mg/L. In addition, the “PA-7 MIC” value in series [3] was determined as 2 mg/L. Also, the “EC-1 MIC” value in series [4] is reported as 2 mg/L. In series [5], the IC50 was found to be 0.266 nM.
Turning to `Cc1cc(F)ccc1-c1ccc(CCC(C)(C(=O)NO)S(C)(=O)=O)cc1` (centres unmarked) [Example 98], the “KP-3700 MIC” value in series [1] came to 16 mg/L. The “AB-3167 MIC” value in series [2] came out at 32 mg/L. In series [3], the “PA-7 MIC” value was found to be 2 mg/L. Moreover, the “EC-1 MIC” value in series [4] is reported as 4 mg/L. Besides, the IC50 in series [5] was found to be 1.23 nM.
Take `CC(CCc1ccc(-c2ccc(F)c(Cl)c2)cc1)(C(=O)NO)S(C)(=O)=O` (centres unmarked) [Example 104]: in series [1], the “KP-3700 MIC” value worked out at 2 mg/L. In addition, the “AB-3167 MIC” value in series [2] is 2 mg/L. For the same compound, the “PA-7 MIC” value in series [3] is reported as 1 mg/L. Further, in series [4], the “EC-1 MIC” value is on record as 0.5 mg/L. In addition, in series [5], the IC50 was found to be 0.127 nM.
Regarding `C[C@@](CCc1ccc(-c2ccc(C#N)cc2)cc1)(C(=O)NO)S(C)(=O)=O` [Example 107], the “KP-3700 MIC” value in series [1] was determined as 1 mg/L. Also, the “AB-3167 MIC” value in series [2] was determined as 16 mg/L. The “PA-7 MIC” value in series [3] is on record as 0.25 mg/L. In addition, the “EC-1 MIC” value in series [4] turned out to be 0.25 mg/L. Further, the IC50 in series [5] was 0.134 nM.
For `CC(=O)c1ccc(-c2ccc(CCC(C)(C(=O)NO)S(C)(=O)=O)cc2)cc1` (centres unmarked) [Example 108], the “KP-3700 MIC” value in series [1] worked out at 2 mg/L. In series [2], the “AB-3167 MIC” value amounted to 32 mg/L. Further, the “PA-7 MIC” value in series [3] is 0.5 mg/L. In addition, the “EC-1 MIC” value in series [4] worked out at 0.5 mg/L. For the same compound, the IC50 in series [5] was determined as 0.176 nM.
As for `Cc1cc(-c2ccc(CCC(C)(C(=O)NO)S(C)(=O)=O)cc2)ccc1C#N` (centres unmarked) [Example 109], the “KP-3700 MIC” value in series [1] worked out at 2 mg/L. Also, in series [2], the “AB-3167 MIC” value is 32 mg/L. Further, in series [3], the “PA-7 MIC” value came out at 2 mg/L. Besides, the “EC-1 MIC” value in series [4] was 0.5 mg/L. Also, in series [5], the IC50 came out at 0.144 nM.

The record behind these values is US8853258B2, “C-linked hydroxamic acid derivatives useful as antibacterial agents” (Pfizer Inc., priority 2009, dated 2014).
